Activity calls are given as the source filed them. The calls are words filed in the database; no cut-off is given here.
Tests used:
Acetylcholinesterase = target: T1, Acetylcholinesterase (Rattus norvegicus, UniProt P37136); experiment: Inhibition of rat cortex AChE using acetylthiocholine iodide as substrate by Ellman's method
T1 sequence (P37136 whole entry): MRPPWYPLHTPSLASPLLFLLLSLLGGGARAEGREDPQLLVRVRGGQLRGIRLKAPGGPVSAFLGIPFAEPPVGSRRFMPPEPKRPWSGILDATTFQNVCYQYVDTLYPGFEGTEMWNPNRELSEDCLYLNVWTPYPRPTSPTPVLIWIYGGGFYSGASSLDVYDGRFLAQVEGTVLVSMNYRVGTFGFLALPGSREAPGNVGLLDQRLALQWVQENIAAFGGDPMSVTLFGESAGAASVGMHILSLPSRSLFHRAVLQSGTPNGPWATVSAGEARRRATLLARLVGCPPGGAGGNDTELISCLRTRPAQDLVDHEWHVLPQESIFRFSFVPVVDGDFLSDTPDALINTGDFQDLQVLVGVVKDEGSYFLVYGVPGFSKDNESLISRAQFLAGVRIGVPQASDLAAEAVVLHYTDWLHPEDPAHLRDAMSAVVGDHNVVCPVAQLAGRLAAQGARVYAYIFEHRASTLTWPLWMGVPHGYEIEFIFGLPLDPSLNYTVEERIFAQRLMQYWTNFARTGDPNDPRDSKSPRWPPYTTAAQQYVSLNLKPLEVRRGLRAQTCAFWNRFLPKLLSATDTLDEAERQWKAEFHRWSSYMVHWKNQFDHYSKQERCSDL

HepG2 = experiment: cells; format: functional, cell-based; details: Homo sapiens, HepG2, 24 h
Description: Cytotoxicity against human HepG2 cells assessed as reduction in cell viability incubated for 24 hrs by MTT assay

Butyrylcholinesterase = Butyrylcholinesterase (Rattus norvegicus, UniProt Q9JKC1)
Description: Inhibition of rat serum BChE using butyrylthiocholine iodide as substrate by Ellman's method

[1] = target: Voltage-gated inwardly rectifying potassium channel KCNH2 (Homo sapiens, UniProt Q12809)
Description: Inhibition of hERG expressed in CHO-K1 cells assessed as reduction in thallium influx incubated for 30 minutes by FLIPR

in vitro = details: rat, HepG2 cells
Description: Ratio of IC50 for cytotoxicity against human HepG2 cells to ratio of IC50 for inhibition of rat cortex AChE

[2] = target: T2, Acetylcholinesterase (Rattus norvegicus) (UniProt P37136); experiment: Mixed-type inhibition of rat cortex AChE at 0.5 to 1.5 nM using varying levels of acetylthiocholine iodide as substrate measured at 5 minutes by Ellman's method based Lineweaver-Burk plot analysis; details: dose 0.5-1.5 nM
T2 sequence (whole entry): T1 sequence (P37136 whole entry)

[3] = Terminal half life in C57BL/6 mouse plasma at 10 mg/kg, po administered as single dose measured upto 24 hrs by UPLC analysis; format: ADME, organism-based; details: read-out: beta t1/2 (converted)
[4] = Terminal half life in C57BL/6 mouse brain at 10 mg/kg, po administered as single dose measured upto 24 hrs by UPLC analysis; format: ADME, organism-based; details: read-out: beta t1/2 (converted)
[5] = Terminal half life in C57BL/6 mouse liver at 10 mg/kg, po administered as single dose by UPLC analysis; format: ADME, organism-based; details: read-out: beta t1/2 (converted)
[6] = Terminal half life in C57BL/6 mouse kidney at 10 mg/kg, po administered as single dose by UPLC analysis; format: ADME, organism-based; details: read-out: beta t1/2 (converted)
[7] = Tmax in C57BL/6 mouse plasma at 10 mg/kg, po administered as single dose measured upto 24 hrs by UPLC analysis; format: ADME, organism-based
[8] = Tmax in C57BL/6 mouse brain at 10 mg/kg, po administered as single dose measured upto 24 hrs by UPLC analysis; format: ADME, organism-based
[9] = Tmax in C57BL/6 mouse liver at 10 mg/kg, po administered as single dose by UPLC analysis; format: ADME, organism-based
[10] = Tmax in C57BL/6 mouse kidney at 10 mg/kg, po administered as single dose by UPLC analysis; format: ADME, organism-based
[11] = Cmax in C57BL/6 mouse plasma at 10 mg/kg, po administered as single dose measured at 2.25 hrs by UPLC analysis; format: ADME, organism-based; parameters: route oral, dose 10 mg/kg, time 2.25 hrs
[12] = Cmax in C57BL/6 mouse brain at 10 mg/kg, po administered as single dose measured at […] by UPLC analysis; format: ADME, organism-based
[13] = Cmax in C57BL/6 mouse liver at 10 mg/kg, po administered as single dose measured at 1.75 hrs by UPLC analysis; format: ADME, organism-based; parameters: route oral, time 1.75 hrs, dose 10 mg/kg
[14] = Cmax in C57BL/6 mouse kidney at 10 mg/kg, po administered as single dose measured at 2.50 hrs by UPLC analysis; format: ADME, organism-based; parameters: route oral, time 2.5 hrs, dose 10 mg/kg
[15] = AUC (0 to t) in C57BL/6 mouse plasma at 10 mg/kg, po administered as single dose measured upto 24 hrs by UPLC analysis; format: ADME, organism-based; parameters: route oral, dose 10 mg/kg, time <=24; details: in vivo
[16] = AUC (0 to infinity) in C57BL/6 mouse plasma at 10 mg/kg, po administered as single dose measured upto 24 hrs by UPLC analysis; format: ADME, organism-based; parameters: route oral, dose 10 mg/kg, time <=24; details: in vivo
[17] = AUC (0 to infinity) in C57BL/6 mouse brain at 10 mg/kg, po administered as single dose measured upto 24 hrs by UPLC analysis; format: ADME, organism-based; parameters: route oral, dose 10 mg/kg, time <=24; details: in vivo
[18] = AUC (0 to infinity) in C57BL/6 mouse liver at 10 mg/kg, po administered as single dose by UPLC analysis; format: ADME, organism-based; parameters: time infinity, route oral, dose 10 mg/kg; details: in vivo
[19] = AUC (0 to infinity) in C57BL/6 mouse kidney at 10 mg/kg, po administered as single dose by UPLC analysis; format: ADME, organism-based; parameters: route oral, time infinity, dose 10 mg/kg; details: in vivo
[20] = MRT (0 to infinity) in C57BL/6 mouse plasma at 10 mg/kg, po administered as single dose measured upto 24 hrs by UPLC analysis; format: ADME, organism-based
[21] = MRT (0 to infinity) in C57BL/6 mouse brain at 10 mg/kg, po administered as single dose measured upto 24 hrs by UPLC analysis; format: ADME, organism-based
[22] = MRT (0 to infinity) in C57BL/6 mouse liver at 10 mg/kg, po administered as single dose by UPLC analysis; format: ADME, organism-based
[23] = MRT (0 to infinity) in C57BL/6 mouse kidney at 10 mg/kg, po administered as single dose by UPLC analysis; format: ADME, organism-based
Hippocampus = experiment: Anti-alzheimer activity in theta-burst stimulated C57BL/6 mouse hippocampus CA3 region assessed as enhancement of synaptic strength by measuring long term potentiation in brain slice at 3 mg/kg, po for 4 days by electrophysiological recording relative to control; format: functional, organism-based; details: time 4.0 day
Mus musculus = species on record: Mus musculus; experiment: Anti-alzheimer activity in C57BL/6 mouse assessed as decrease in pirenzepine induced LTP at 1 microM pretreated for 90 mins and further incubated with pirenzepine for 30 mins followed by high frequency stimulation by electrophysiological recording; format: functional, organism-based; details: time 120.0 min
[24] = Drug concentration in C57BL/6 mouse muscle at 10 mg/kg, po administered as single dose by UPLC analysis; format: ADME, organism-based, Muscle tissue; details: in vivo

Chain of Voltage-gated inwardly rectifying potassium channel KCNH2 (Q12809 whole entry): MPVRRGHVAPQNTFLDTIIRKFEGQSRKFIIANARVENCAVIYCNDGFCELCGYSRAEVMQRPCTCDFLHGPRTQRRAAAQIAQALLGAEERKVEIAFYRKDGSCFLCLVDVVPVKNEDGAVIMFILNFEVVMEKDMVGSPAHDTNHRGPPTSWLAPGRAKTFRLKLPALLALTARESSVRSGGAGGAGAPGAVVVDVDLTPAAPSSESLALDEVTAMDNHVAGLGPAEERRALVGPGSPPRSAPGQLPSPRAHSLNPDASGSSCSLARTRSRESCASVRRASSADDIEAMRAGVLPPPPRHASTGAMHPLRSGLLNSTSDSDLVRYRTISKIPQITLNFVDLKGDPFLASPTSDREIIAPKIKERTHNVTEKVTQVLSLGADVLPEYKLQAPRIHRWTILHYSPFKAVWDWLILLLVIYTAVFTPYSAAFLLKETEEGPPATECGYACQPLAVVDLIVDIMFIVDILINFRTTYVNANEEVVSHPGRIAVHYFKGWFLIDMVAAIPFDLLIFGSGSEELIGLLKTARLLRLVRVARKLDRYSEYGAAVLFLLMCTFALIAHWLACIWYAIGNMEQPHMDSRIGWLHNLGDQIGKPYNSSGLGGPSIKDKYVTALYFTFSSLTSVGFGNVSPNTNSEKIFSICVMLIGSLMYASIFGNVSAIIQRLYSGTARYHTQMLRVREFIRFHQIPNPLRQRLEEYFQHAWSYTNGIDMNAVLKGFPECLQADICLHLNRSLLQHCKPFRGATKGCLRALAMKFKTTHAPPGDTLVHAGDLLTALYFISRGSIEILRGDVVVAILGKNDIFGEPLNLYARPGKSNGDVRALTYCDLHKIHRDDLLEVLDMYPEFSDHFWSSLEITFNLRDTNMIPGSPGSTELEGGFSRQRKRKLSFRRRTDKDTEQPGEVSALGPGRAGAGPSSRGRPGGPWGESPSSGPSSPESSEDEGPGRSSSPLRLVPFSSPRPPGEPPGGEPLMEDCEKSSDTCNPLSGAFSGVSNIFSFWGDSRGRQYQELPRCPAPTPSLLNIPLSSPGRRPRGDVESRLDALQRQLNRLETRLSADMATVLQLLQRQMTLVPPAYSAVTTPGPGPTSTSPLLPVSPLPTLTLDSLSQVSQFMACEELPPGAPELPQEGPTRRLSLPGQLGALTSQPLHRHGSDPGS
Chain of Butyrylcholinesterase (Q9JKC1 whole entry): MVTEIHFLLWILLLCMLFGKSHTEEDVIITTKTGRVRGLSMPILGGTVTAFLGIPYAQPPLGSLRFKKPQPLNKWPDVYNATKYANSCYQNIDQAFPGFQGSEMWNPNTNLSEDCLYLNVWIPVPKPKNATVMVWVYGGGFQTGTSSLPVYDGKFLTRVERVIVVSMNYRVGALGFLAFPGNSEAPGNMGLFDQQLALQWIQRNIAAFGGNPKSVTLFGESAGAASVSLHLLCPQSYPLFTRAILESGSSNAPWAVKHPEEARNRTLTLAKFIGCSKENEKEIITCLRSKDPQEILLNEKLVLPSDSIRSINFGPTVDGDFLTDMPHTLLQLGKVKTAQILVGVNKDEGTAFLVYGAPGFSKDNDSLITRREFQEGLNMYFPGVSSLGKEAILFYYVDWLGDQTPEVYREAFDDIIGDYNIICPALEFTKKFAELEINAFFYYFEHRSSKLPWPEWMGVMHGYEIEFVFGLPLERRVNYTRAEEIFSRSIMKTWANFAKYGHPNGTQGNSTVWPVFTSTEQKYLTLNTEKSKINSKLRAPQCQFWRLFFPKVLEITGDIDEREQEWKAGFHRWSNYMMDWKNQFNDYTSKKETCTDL

Compound: O=c1ccc2c([nH]1)CCC(NCCCCNc1c3c(nc4cc(Cl)ccc14)CCCC3)C2 (configuration not stated)
- IC50 (Acetylcholinesterase): 2.94 nM
- IC50 (HepG2): 110 µM
- IC50 (Butyrylcholinesterase): 347 nM

Compound: O=c1ccc2c([nH]1)CCC(NCCCCCCNc1c3c(nc4cc(Cl)ccc14)CCCC3)C2 (configuration not stated)
- IC50 (Acetylcholinesterase): 6.02 nM
- IC50 (HepG2): 51.3 µM
- IC50 (Butyrylcholinesterase): 574 nM
- IC50 [1]: 11.6 µM
- selectivity ratio (in vitro): 8520

Compound: O=c1ccc2c([nH]1)CCC(NCCNc1c3c(nc4cc(Cl)ccc14)CCCC3)C2 (configuration not stated)
- IC50 (Acetylcholinesterase): 17.7 nM
- IC50 (HepG2): 214 µM
- IC50 (Butyrylcholinesterase): 401 nM
- IC50 [1]: 2.41 µM
- selectivity ratio (in vitro): 12100

Compound: COc1cc2c(cc1OC)C(=O)C(CC1CCN(Cc3ccccc3)CC1)C2 (configuration not stated) [DONEPEZIL]
- IC50 (HepG2): 263 µM

Compound: O=c1ccc2c([nH]1)CCC(NCCCCCNc1c3c(nc4cc(Cl)ccc14)CCCC3)C2 (configuration not stated)
- IC50 (Acetylcholinesterase): 5.66 nM
- IC50 (HepG2): 47.2 µM
- IC50 (Butyrylcholinesterase): 503 nM
- IC50 [1]: 7.66 µM
- selectivity ratio (in vitro): 8340

Compound: O=c1ccc2c([nH]1)CCC(NCCCCCCCCCNc1c3c(nc4cc(Cl)ccc14)CCCC3)C2 (configuration not stated)
- IC50 (Acetylcholinesterase): 29.1 nM
- IC50 (HepG2): 35.5 µM
- IC50 (Butyrylcholinesterase): 1080 nM

Compound: O=c1ccc2c([nH]1)CCC(NCCCNc1c3c(nc4cc(Cl)ccc14)CCCC3)C2 (configuration not stated)
- IC50 (Acetylcholinesterase): 0.9 nM
- inhibition [2]: Active
- IC50 (HepG2): 107 µM
- half-life [3]: 473 min
- half-life [4]: 468 min
- half-life [5]: 430 min
- half-life [6]: 449 min
- Tmax [7]: 2.25 h
- Tmax [8]: 2.75 h
- Tmax [9]: 1.75 h
- Tmax [10]: 2.5 h
- Cmax [11]: 68.3 ng/mL
- Cmax at […] [12]: 4.02 ng/mL
- Cmax [13]: 148 ng/mL
- Cmax [14]: 165 ng/mL
- AUCt [15]: 246 ng·h/mL
- AUC [16]: 279 ng·h/mL
- AUC [17]: 21.86 g/h
- AUC [18]: 534.14 g/h
- AUC [19]: 1124.93 g/h
- MRT inf [20]: 10.8 h
- MRT inf [21]: 11.1 h
- MRT inf [22]: 8.39 h
- MRT inf [23]: 11.1 h
- Activity (Hippocampus): Active
- Activity (Mus musculus): Active
- Drug uptake [24]: Not Active
- IC50 (Butyrylcholinesterase): 200 nM
- IC50 [1]: 8.98 µM
- selectivity ratio (in vitro): 119000

Compound: O=c1ccc2c([nH]1)CCC(NCCCCCCCNc1c3c(nc4cc(Cl)ccc14)CCCC3)C2 (configuration not stated)
- IC50 (Acetylcholinesterase): 14.8 nM
- IC50 (HepG2): 39.2 µM
- IC50 (Butyrylcholinesterase): 893 nM
- IC50 [1]: 6.36 µM
- selectivity ratio (in vitro): 2660

Compound: O=c1ccc2c([nH]1)CCC(NCCCCCCCCNc1c3c(nc4cc(Cl)ccc14)CCCC3)C2 (configuration not stated)
- IC50 (Acetylcholinesterase): 12.7 nM
- IC50 (HepG2): 42.6 µM
- IC50 (Butyrylcholinesterase): 1360 nM
- IC50 [1]: 2.19 µM
- selectivity ratio (in vitro): 3340

Compound: O=c1ccc2c([nH]1)CCC(NCCCCCCCCCCNc1c3c(nc4cc(Cl)ccc14)CCCC3)C2 (configuration not stated)
- IC50 (Acetylcholinesterase): 66 nM
- IC50 (HepG2): 17.2 µM
- IC50 (Butyrylcholinesterase): 3780 nM
- IC50 [1]: 2.77 µM
- selectivity ratio (in vitro): 260
